Source: paper PMC11721617, “Novel isobavachalcone derivatives induce apoptosis and necroptosis in human non-small cell lung cancer H1975 cells” (Journal of Enzyme Inhibition and Medicinal Chemistry, 2023)
Like-named read-outs stand apart in the source and are kept apart here.

Key:
H1975 = test: MTT assay, cytotoxic activity / cell viability; assay type: cell-based, human; settings: Homo sapiens, NCI-H1975
Experimental: (§1) Four cell lines (H1975, A549, PC9, and Aml-12) were cultured in RPMI 1640 medium containing 10% foetal bovine serum (FBS) and 1% penicillin/streptomycin in an atmosphere with 5% CO2 and 95% relative humidity at 37 °C.
(§2) Cell viability was examined using the MTT assay. The cells grown in the logarithmic phase were seeded in 96-well plates at a density of 5 × 10^3 per well. The cells were treated with various concentrations (0, 5, 10, 20, 40, and 80 μM) of the compound at different times, respectively. At the end of time point, MTT solution (5 mg/ml) was added to each well and incubated at 37 °C for 4 h. Next, the media was removed, and formazan was dissolved in DMSO. Finally, absorbance was measured with a microplate spectrophotometer at 490 nm (Synergy HT, BioTek, VT, USA).

A549 = test: MTT assay, cytotoxic activity; assay type: cell-based, human; settings: Homo sapiens; A549 cells, 72 h, MTT
Experimental: as §1, §2

PC9 = test: MTT assay, cytotoxic activity; assay type: cell-based; settings: Homo sapiens, PC-9, PC9 cells, 72 h
Experimental: as §1, §2

[1] = MTT assay, cytotoxic activity on normal hepatocytes; assay type: cell-based, mouse; settings: Aml-12 cells (normal hepatocytes); normal mouse hepatocytes Aml-12 cells, 72 h
Experimental: as §1, §2

[2] = H1975 cells, 72 h, MTT, read-out: Cytotoxic activity IC50, H1975

`COc1ccc(/C=C/C(=O)c2ccc(O)c(CC=C(C)C)c2O)cc1` [Compound 1, (E)-1-(2,4-Dihydroxy-3-(3-methylbut-2-en-1-yl)phenyl)-3-(4-methoxyphenyl)prop-2-en-1-one] gave an IC50 (H1975; [2]) of 38 µM, an IC50 (A549) of 41.6 µM and an IC50 (PC9) of 14.3 µM.
With `COc1ccc(C(=O)/C=C/c2ccc(O)cc2)c(O)c1CC=C(C)C` [Compound 2, (E)-1-(2-Hydroxy-4-methoxy-3-(3-methylbut-2-en-1-yl)phenyl)-3-(4-hydroxyphenyl) prop-2-en-1-one] the IC50 (H1975; [2]) was 40.5 µM, the IC50 (A549) was > 50 µM and the IC50 (PC9) was 35.3 µM.
In the case of `COc1ccc(/C=C/C(=O)c2ccc(OC)c(CC=C(C)C)c2O)cc1` [Compound 3, (E)-1-(2-Hydroxy-4-methoxy-3-(3-methylbut-2-en-1-yl)phenyl)-3-(4-methoxyphenyl) prop-2-en-1-one], the IC50 (H1975; [2]) is reported as > 50 µM, the IC50 (A549) is reported as > 50 µM and the IC50 (PC9) is reported as > 50 µM.
With `CC(C)=CCc1c(OCc2ccccc2)ccc(C(=O)/C=C/c2ccc(OCc3ccccc3)cc2)c1O` [Compound 4, (E)-1-(4-(Benzyloxy)-2-hydroxy-3-(3-methylbut-2-en-1-yl)phenyl)-3-(4-(benzyl-oxy)phenyl)prop-2-en-1-one] the IC50 (H1975; [2]) was > 50 µM, the IC50 (A549) was > 50 µM and the IC50 (PC9) was > 50 µM.
Work on `CC(C)=CCc1c(O)ccc(C(=O)/C=C/c2ccc(OCc3ccccc3)cc2)c1O` [Compound 5, (E)-3-(4-(Benzyloxy)phenyl)-1-(2,4-dihydroxy-3-(3-methylbut-2-en-1-yl)phenyl)prop-2-en-1-one] yielded an IC50 (H1975; [2]) of 13.6 µM, an IC50 (A549) of 33.1 µM and an IC50 (PC9) of 24.9 µM.
`CC(C)=CCc1c(O)c(C=O)cc(C(=O)/C=C/c2ccc(O)cc2)c1O` [Compound 6, (E)-2,4-Dihydroxy-5-(3-(4-hydroxyphenyl)acryloyl)-3-(3-methylbut-2-en-1-yl)benzylaldehyde] showed an IC50 (H1975; [2]) of 5.79 µM, an IC50 (A549) of 24.1 µM and an IC50 (PC9) of 18.4 µM.
With `CC(C)=CCc1c(O)c(/C=N/NC(=N)N)cc(C(=O)/C=C/c2ccc(O)cc2)c1O` [Compound 7, 2-((E)-2,4-Dihydroxy-5-((E)-3-(4-hydroxyphenyl)acryloyl)-3-(3-methylbut-2-en-1-yl)benzylidene)hydrazine-1-carboximidamide] the IC50 (H1975; [2]) was 7.33 µM, the IC50 (H1975; read-out: IC50 values against H1975 and A549 cell lines (range over both)) was 4.35 to 15 µM and the IC50 (A549) was 15 µM. The IC50 (PC9) was 8.3 µM.
With `CC(C)=CCc1c(O)c(C(=O)/C=C/c2ccc(O)cc2)cc(C(c2ccncc2)N2CCOCC2)c1O` (stereo not drawn) [Compound 8, (E)-1-(2,4-Dihydroxy-3-(3-methylbut-2-en-1-yl)-5-(morpholino(pyridin-4-yl)methyl)phenyl)-3-(4-hydroxyphenyl)prop-2-en-1-one] the IC50 (H1975; [2]) was 13.8 µM, the IC50 (A549) was 39.2 µM and the IC50 (PC9) was 29.9 µM.
`CC(C)=CCc1c(O)c(C(=O)/C=C/c2ccc(O)cc2)cc(C(c2ccccc2)N2CCOCC2)c1O` (stereo not drawn) [Compound 9, (E)-1-(2,4-Dihydroxy-3-(3-methylbut-2-en-1-yl)-5-(morpholino(phenyl)methyl)phenyl)-3-(4-hydroxyphenyl)prop-2-en-1-one] gave an IC50 (H1975; [2]) of 12.1 µM, an IC50 (A549) of 26.9 µM and an IC50 (PC9) of 22.8 µM.
In the case of `CC(C)=CCc1c(O)c(C(=O)/C=C/c2ccc(O)cc2)cc(C(c2ccc(Br)cc2)N2CCOCC2)c1O` (stereo not drawn) [Compound 10, (E)-1-(5-((4-Bromophenyl)(morpholino)methyl)-2,4-dihydroxy-3-(3-methylbut-2-en-1-yl)phenyl)-3-(4-hydroxyphenyl)prop-2-en-1-one], the IC50 (H1975; [2]) is reported as 6.76 µM, the IC50 (A549) is reported as 34.8 µM and the IC50 (PC9) is reported as 18.6 µM.
Compound `CC(C)=CCc1c(O)c(C(=O)/C=C/c2ccc(O)cc2)cc(C(c2ccc(Cl)cc2)N2CCOCC2)c1O` (stereo not drawn) [Compound 11, (E)-1-(5-((4-Chlorophenyl)(morpholino)methyl)-2,4-dihydroxy-3-(3-methylbut-2-en-1-yl)phenyl)-3-(4-hydroxyphenyl)prop-2-en-1-one] has an IC50 (H1975; [2]) of 11.4 µM, an IC50 (A549) of 21.8 µM and an IC50 (PC9) of 19.7 µM.
Work on `CC(C)=CCc1c(O)c(C(=O)/C=C/c2ccc(O)cc2)cc(C(c2ccc(F)cc2)N2CCOCC2)c1O` (stereo not drawn) [Compound 12, (E)-1-(5-((4-Fluorophenyl)(morpholino)methyl)-2,4-dihydroxy-3-(3-methylbut-2-en-1-yl)phenyl)-3-(4-hydroxyphenyl)prop-2-en-1-one] yielded an IC50 (H1975; [2]) of 12.1 µM, an IC50 (A549) of 33 µM and an IC50 (PC9) of 20.7 µM.
Work on `CC(C)=CCc1c(O)c(C(=O)/C=C/c2ccc(O)cc2)cc(C(c2ccc([N+](=O)[O-])cc2)N2CCOCC2)c1O` (stereo not drawn) [Compound 13, (E)-1-(2,4-Dihydroxy-3-(3-methylbut-2-en-1-yl)-5-(morpholino(4-nitrophenyl)methyl)phenyl)-3-(4-hydroxyphenyl)prop-2-en-1-one] yielded an IC50 (H1975; [2]) of 7.39 µM, an IC50 (A549) of 44.5 µM and an IC50 (PC9) of 23.5 µM.
In the case of `CC(C)=CCc1c(O)c(C(=O)/C=C/c2ccc(O)cc2)cc(C(c2ccc(C(=O)O)cc2)N2CCOCC2)c1O` (stereo not drawn) [Compound 14, (E)-4-((2,4-Dihydroxy-5-(3-(4-hydroxyphenyl)acryloyl)-3-(3-methylbut-2-en-1-yl)phenyl)(morpholino)methyl)benzoic acid], the IC50 (H1975; [2]) is reported as 23.6 µM, the IC50 (A549) is reported as > 50 µM and the IC50 (PC9) is reported as > 50 µM.
With `COc1ccc(C(c2cc(C(=O)/C=C/c3ccc(O)cc3)c(O)c(CC=C(C)C)c2O)N2CCOCC2)cc1` (stereo not drawn) [Compound 15, (E)-1-(2,4-Dihydroxy-5-((4-methoxyphenyl)(morpholino)methyl)-3-(3-methylbut-2-en-1-yl)phenyl)-3-(4-hydroxyphenyl)prop-2-en-1-one] the IC50 (H1975; [2]) was 11.7 µM, the IC50 (A549) was 28.9 µM and the IC50 (PC9) was 23.2 µM.
Work on `CC(C)=CCc1c(O)c(C(=O)/C=C/c2ccc(O)cc2)cc(C(c2ccc(C(F)(F)F)cc2)N2CCOCC2)c1O` (stereo not drawn) [Compound 17, (E)-1-(2,4-Dihydroxy-3-(3-methylbut-2-en-1-yl)-5-(morpholino(4-(trifluoromethyl)phenyl)methyl)phenyl)-3-(4-hydroxyphenyl)prop-2-en-1-one] yielded an IC50 (H1975; [2]) of 7.01 µM, an IC50 (A549) of 30.1 µM and an IC50 (PC9) of 20.6 µM.
`CC(C)=CCc1c(O)ccc(C(=O)/C=C/c2ccc(O)cc2)c1O` [IBC, isobavachalcone] showed an IC50 at 72 h [1] of 17.7 ± 1.2 µM, an IC50 (H1975; [2]) of 17.9 µM and an IC50 (A549) of 21.7 µM. It also gave an IC50 (PC9) of 9.22 µM.
For `CC(=O)O[C@H]1C(=O)[C@@]2(C)[C@H]([C@H](OC(=O)c3ccccc3)[C@]3(O)C[C@H](OC(=O)[C@H](O)[C@@H](NC(=O)c4ccccc4)c4ccccc4)C(C)=C1C3(C)C)[C@]1(OC(C)=O)CO[C@@H]1C[C@@H]2O` [Paclitaxel, reference compound], the IC50 at 72 h [1] was 2.51 ± 0.13 µM, the IC50 (H1975; [2]) was 0.01 µM and the IC50 (A549) was 1.61 µM. For the same compound, the IC50 (PC9) was 0.06 µM.
